According to patent US20130005678A1, “Methods and Compositions for Treating or Ameliorating Cancer Using Gemcitabine-5'-Elaidate” (CLAVIS PHARMA ASA, priority 2010, published 2013):

Tests used:
[1] = system: Co-26 murine colon cancer cells; experiment: Antitumor effect in Co-26 liver metastasis model; assay type: in vivo; conditions: single dose 75 mg/kg
Method: Antitumor effect of single dose of gemcitabine-5′-elaidic acid ester or gemcitabine is tested in Balb/C female mice injected with Co-26 murine colon cancer cells in the spleen (a liver metastasis model). […] The activity of gemcitabine is similar.

[2] = system: WiDr human colon carcinoma; experiment: Combination study in vitro, growth inhibition, median effect analysis (WiDr); assay type: cell-based
Method: The cell lines A549 human NSCLC and WiDr human colon carcinoma are used to determine the combination index and also the effect of Gemcitabine-5′-elaidate on the cell cycle. A sulforhodamine B colorimetric assay is used to determine growth inhibition after 72 hours. Pemetrexed combinations are tested using the MTT assay. Combinations with pemetrexed are also tested in the WiDr-LF cell line, which are WiDr cells cultured under low folate conditions. The IC25 and IC50 values (inhibitory concentrations at 25% or 50%, respectively) are calculated. The IC25 value is used for combinations with serial dilutions of oxaliplatin or docetaxel, and the IC50 value is used for pemetrexed combinations. Median effect analysis is performed.

human glioma cells U373 = experiment: Antitumor activity in human glioma U373 grown intracerebrally; assay type: in vivo
Method: NMRI male mice are inoculated with human glioma cells U373 intracerebrally. The tumors at the injection site (at the surface of the brain), as well as the intracerebral tumors, are evaluated. Gemcitabine-5′-elaidic acid ester is administered intraperitoneally on Days 4-8, 11-15, 18-22, and 25-29 and is active at 4 mg/kg per injection.

pancreatic cancer = experiment: Treatment of a pancreatic cancer patient with low hENT1 expression; assay type: in vivo, human
Method: An individual is diagnosed with pancreatic cancer. The patient provides a sample. The sample contains cancerous cells from the patient. The sample comes from a biopsy of the tumor, from circulating tumor cells, or from another source.
The sample is tested to determine the level of expression of hENT1 or another nucleoside transporter. The level is detected by immunohistochemistry, by determining the amount of mRNA relevant to hENT1 in the sample, or by other known means.
The testing of the sample takes place at a testing facility. The physician or their staff ships the sample to this facility. The sample is fixed or frozen for shipment. The sample is mixed with an antibody prior to shipment and analyzed when it arrives at the facility or the sample is shipped with no antibody added prior to shipment.
The nucleoside transporter level is compared to a control. The control is non-cancerous cells from the patient or is samples from another population. The control samples are analyzed at the same time as the sample or the analysis is based upon computer stored data where the comparison is done by using a rule based upon previously collected and characterized control data. This comparison allows for the classification of the sample as a “high,” “low,” or “normal,” sample based upon nucleoside transporter levels. […]

[3] = system: THX, Lox, MOLT4, and MOLT4/C; experiment: Protection by dipyridamole from cell killing in vitro (FIG. 4); assay type: cell-based; conditions: four cell lines
Source text: The number on the Y axis is the fold protection by dipyridamole from administration of gemcitabine and gemcitabine-5′-elaidate.

CEM and CEM-Ara-C/8 = experiment: Tumor cell killing in vitro in CEM and hENT1-deficient CEM-Ara-C/8 (FIGS. 5A-5B); assay type: cell-based; conditions: CEM vs hENT1-deficient CEM-Ara-C/8
Source text: CEM: T-lymphoblastic leukemia cell line. CEM-Ara-C/8: Clonal derivative of CEM with hENT1 transporter deficiency.

WiDr cell line = experiment: Cell cycle analysis, flow cytometry with propidium iodide (WiDr); assay type: cell-based, human
Method: (§1) The effect on cell cycle is determined after 72 h exposure using flow cytometry combined with propidium iodide staining For cell cycle analysis, the concentration range is from 0.0005 μM to 0.05 μM in the A549 cell line and from 0.001 μM to 0.1 μM in the WiDr cell line. […] The effect on cell cycle is obtained also for the combinations with pemetrexed.

A549 = experiment: Platinum accumulation in DNA (A549); assay type: cell-based, human; conditions: oxaliplatin 200 μM combined with Gemcitabine-5′-elaidate 0.004 μM
Method: The effect on DNA platinum accumulation in DNA after exposure to oxaliplatin and oxaliplatin combined with Gemcitabine-5′-elaidate (oxaliplatin [200 μM] combined with Gemcitabine-5′-elaidate [0.004 μM]) is also determined.

A549 cell line = experiment: Cell cycle analysis, flow cytometry with propidium iodide (A549); assay type: cell-based, human
Method: as §1

[4] = 72 hours, sulforhodamine B assay
[5] = 72 h exposure, 0.001 μM to 0.1 μM

`CCCCCCCC/C=C/CCCCCCCC(=O)OC[C@H]1O[C@@H](n2ccc(N)nc2=O)C(F)(F)[C@@H]1O` [gemcitabine-5′-elaidic acid ester] was tested, and the antitumor activity ([1]; Balb/C female mice, Co-26 cells in the spleen) was “significant antitumor activity”, the hematological parameters [1] was “moderate reduction” and the “mean survival in days and Treated/Control (T/C, %) over saline control” value [1] was “significant increase”. The “combination effect with docetaxel” value [2, 4] was “antagonistic”, the “combination effect with oxaliplatin” value [2, 4] was “synergistic” and the “combination effect with pemetrexed” value ([2]; MTT assay) was “Antagonistic activity”. The antitumor activity (human glioma cells U373; NMRI male mice, U373 intracerebrally, intraperitoneally Days 4-8, 11-15, 18-22, 25-29, 4 mg/kg per injection) was “active”, the activity intracerebrally (human glioma cells U373; after intraperitoneal administration) was “active intracerebrally” and the response to treatment (pancreatic cancer) was “responds favorably”. The “protection by dipyridamole (blocking transporters) against cell killing” value [3] was “does not protect”, the “tumor cell killing in relation to hENT1” value (CEM and CEM-Ara-C/8) was “kills tumor cells in vitro independent of hENT1” and the “G2/M phase, combination with pemetrexed” value (WiDr cell line) was “only a marginal increase”. For the same molecule, the S phase accumulation (WiDr cell line; [5]) was “S phase accumulation at the two highest concentrations”, the “sub G1 accumulation” value (WiDr cell line; [5]) was “dose dependent sub G1 accumulation” and the “platinum adducts in DNA, oxaliplatin combined vs oxaliplatin alone” value (A549) was “but not in A549”. For the same molecule, the “effect on cell cycle” value (A549 cell line; 72 h exposure, 0.0005 μM to 0.05 μM) was “no effect on cell cycle”, the “G0/G1 phase, combination with pemetrexed” value (A549 cell line; increased from 8.8%) was 14.1% and the “S phase, combination with pemetrexed” value (A549 cell line; increased from 23.1%) was 28.5%.
